This note sets out measurements from patent publication US11524000B2, “Targeting Mcl-1 to enhance DNA replication stress sensitivity for cancer therapy” (Emory University, priority 2017, dated 2022).

Structures are written as SMILES.

For data set [1], the system named is RPA2 foci in WT MEF cells. The data set can be described thus: RPA2 foci immunostaining in WT MEF cells (DNA end resection). The data set is classed as cell-based. As to the method: (§1) HR repair is initiated by DSB end resection that is mediated by the Mre11 complex, whereas Ku tightly bound to DNA ends blocks Mre11 DNA resection. As Mcl-1 negatively regulates Ku function via direct binding, Mcl-1 may reverse the Ku-mediated inhibitory effect on Mre11 complex-mediated DNA end resection. Mre11-Rad50 complex-mediated exonuclease activity was analyzed in the presence of increasing concentrations of Mcl-1 protein using 5′-32P-end-labeled fork DNA as a substrate. […] Ku heterodimer inhibited MR-mediated DNA resection (FIG. 2A, lane 3 vs. lane 2), which was gradually reversed by the addition of increasing concentrations of purified Mcl-1 protein in the presence of a constant amount of Ku protein (FIG. 2A, lane 3 vs. lanes 4-7). BSA was used as control and had no effect on DNA resection. […] In addition, RPA2 is an established reporter of DNA end resection during HR repair in cells. To further test the effect of Mcl-1 on DNA resection in cells, RPA2 foci formation following treatment with Hu, camptothecin (CPT), or IR was compared in WT and Mcl1−/− MEFs. […] RPA2 phosphorylation at Ser4 and Ser8 was analyzed by Western blot using the S4/S8 dual-site phosphospecific RPA2 antibody following exposure of MEF WT or MEF Mcl1−/− cells to IR, CPT, and Hu. […]

Data set [2] has as its system RPA2 phosphorylation at Ser4 and Ser8. The data set can be described thus: RPA2 Ser4/Ser8 phosphorylation by Western blot in MEF cells. The data set is classed as cell-based. As to the method:
as §1

The test system of data set [3] is H1299 cells. Description: Cell cycle analysis of H1299 cells during replication stress time course. The data set is classed as cell-based. On the procedure:
(§2) To test whether replication stress affects the Mcl-1/Ku interaction, time course experiments were carried out. H1299 cells were treated with Hu or olaparib for various times (0, 0.5, 1, 2, 8, or 24 hours). The Mcl-1/Ku interaction and cell cycle were analyzed simultaneously at each time point. […] These findings indicate that, in addition to S/G2 cell cycle phase, Hu- or olaparib-induced DNA replication stress can also promote Mcl-1/Ku interaction.

For the next data set, the target named is T1, Mcl-1/Ku complex (Homo sapiens, UniProt Q07820).
T1 construct: endogenous in cells; host or cells: H1299
T1 sequence (Q07820 whole entry, one chain of several): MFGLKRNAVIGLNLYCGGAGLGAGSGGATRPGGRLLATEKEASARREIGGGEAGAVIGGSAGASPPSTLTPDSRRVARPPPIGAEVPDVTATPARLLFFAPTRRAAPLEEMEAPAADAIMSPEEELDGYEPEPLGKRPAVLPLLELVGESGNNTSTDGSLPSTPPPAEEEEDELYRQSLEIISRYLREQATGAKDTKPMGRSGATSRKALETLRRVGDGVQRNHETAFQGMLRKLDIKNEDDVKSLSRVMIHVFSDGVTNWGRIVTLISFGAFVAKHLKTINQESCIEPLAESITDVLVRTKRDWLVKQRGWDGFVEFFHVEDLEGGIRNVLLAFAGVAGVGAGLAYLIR
Description: Co-IP of Mcl-1/Ku interaction in H1299 cells. The format is cell-based. To be noted: for Mcl-1/Ku interaction: time course 0, 0.5, 1, 2, 8, or 24 hours. As to the method:
as §2
(§3) To assess whether Mcl-1 is essential for the effect of MI-223 on HR activity, Mcl-1 was knocked out from H1299 cells using CRISPR/Cas9 to generate Mcl-1-deficient cells. WT Mcl-1, Ku binding-deficient mutant ΔBH1, and empty vector control were exogenously expressed in Mcl-1-knockout H1299 (Mcl1−/− H1299) cells, followed by treatment with MI-223 for 24 hours and analysis of HR efficacy. […] Intriguingly, expression of exogenous WT Mcl-1 but not the Ku binding-deficient ΔBH1 Mcl-1 mutant in Mcl-1-deficient H1299 cells restored the inhibitory effect of MI-223 on HR activity.

For data set [4], the system named is Rad51 foci in H1299 cells. The data set can be described thus: Rad51 foci immunostaining in H1299 cells. The format is cell-based. The settings on record: for induction of Rad51 foci: single agent. As to the method: Rad51 foci were quantified by counting of at least 100 cells from each sample.
(§4) To test whether inhibition of HR by MI-223 sensitizes cancer cells to DNA replication stress, H1299 cells were treated with olaparib or Hu in the absence or presence of MI-223, followed by analysis of Rad51 foci and clonogenic survival. […] Importantly, MI-223 suppression of HR DNA repair activity synergizes with olaparib or Hu to kill H1299 lung cancer cells (FIG. 4H).

Data set [5] deals with H1299 lung cancer xenografts. The data set can be described thus: H1299 lung cancer xenograft tumor growth in nude mice. The format is in vivo. The settings on record: for suppression of lung tumor growth: vs single agent; for repression of lung cancer in vivo (tumor volume): single agent, 0, 20, 40, 80 and 120 mg/kg/day for 30 days. On the procedure:
Nu/Nu nude mice with H1299 lung cancer xenografts were treated with increasing doses of MI-223 (0, 20, 40, 80 and 120 mg/kg/day) for 30 days (n=8 mice per group). Tumor volume was measured once every 2 days. After 30 days, the mice were sacrificed, and the tumors were removed and analyzed. […]

Data set [6] concerns the target T2, BH1 deletion Mcl-1 mutant protein (ΔBH1) (Homo sapiens, UniProt Q07820, DEL256-265).
T2 construct: made in house
The data set can be described thus: Isothermal titration calorimetry (ITC), BH1 deletion mutant. The data set is classed as binding. To be noted: ITC assay. On the procedure: (§5) The binding constant (KD) value was determined by fitting of the titration curve to a 1-site binding mode
(§6) To confirm the binding of MI-223 with Mcl-1, isothermal titration calorimetry (ITC) was used to measure MI-223/Mcl-1 binding. ITC is a direct, label- and immobilization-free technique that measures the binding affinity between proteins and small-molecule ligands that interact with each other, and can analyze binding constant (KD) values in the millimolar and nanomolar range. ITC experiments were performed to assess MI-223/Mcl-1 binding using an auto-iTC200 instrument. […] In addition to the binding constant (KD) value measured by ITC, we also used fluorescence polarization (FP) to measure the inhibitory constant (KI) value using a fluorescence-labeled PUMA BH3 peptide. The PUMA BH3 peptide was chose for this FP assay to evaluate Mcl-1/MI-223 binding because it has been reported to bind specifically to the […] of Mcl-1. […] Based on findings from both ITC (i.e., KD) and FP (i.e., KI), we conclude that MI-223 may directly bind to Mcl-1 with good affinity.
On the technique in general: Isothermal titration calorimetry measures the heat released or taken up as one component is titrated into another.

Data set [7] deals with H1299 lung cancer xenografts. Description: IHC staining of Ki-67 and γ-H2AX in xenograft tumor tissues. The data set is classed as in vivo, mice.
A further data set concerns H1299 lung cancer cells. Description: Colony formation assay (clonogenic survival) in H1299 cells. The data set is classed as cell-based. As to the method:
as §4

The test system of data set [8] is HR activity in U2OS DR-GFP cells. Description: HR repair efficiency in U2OS DR-GFP cells. To be noted: dose-dependent. The data set is classed as cell-based.
Data set [9] concerns H1299 cells. Description: Annexin V binding assay. The format is cell-based.
Data set [10] can be described thus: Toxicity evaluation in treated xenograft mice (weight, blood chemistry, blood counts, histopathology). The data set is classed as in vivo.
Data set [11] concerns HR activity in H1299 DR-GFP cells. Description: HR repair efficiency in H1299 DR-GFP cells. The format is cell-based.
A further data set has as its target Mcl-1 (Homo sapiens, UniProt Q07820). The data set can be described thus: Fluorescence polarization (FP) assay with fluorescence-labeled PUMA BH3 peptide. The settings on record: read-out: inhibitory constant (KI) of MI-223/Mcl-1 binding. On the procedure: as §6
In general terms: Polarisation of emitted light reports the rotation of a fluorescent probe.

Data set [12] relates to HR efficacy in Mcl-1-deficient H1299 cells. The data set can be described thus: HR efficacy in Mcl-1-knockout H1299 cells. The data set is classed as cell-based. The settings on record: 24 hours. As to the method: as §3
Another data set concerns the target WT Mcl-1 protein (Homo sapiens, UniProt Q07820). Description: Isothermal titration calorimetry (ITC), MI-223/Mcl-1 binding. To be noted: 1-site binding mode, read-out: binding constant (KD). On the procedure: as §5, §6
Where [13] appears, read: MI-223 in combination with Hu, compared with Hu alone.
[14] abbreviates: MI-223 in combination with olaparib, compared with olaparib alone.
Where [15] appears, read: mice treated with MI-223 alone or in combination with olaparib or Hu.

Sequence of Mcl-1 (Q07820 whole entry): as the sequence (Q07820 whole entry, one chain of several) above
Sequence of WT Mcl-1 protein (Q07820 whole entry): as the sequence (Q07820 whole entry, one chain of several) above
T2 sequence (Q07820 with tags, fused parts or gaps DEL256-265): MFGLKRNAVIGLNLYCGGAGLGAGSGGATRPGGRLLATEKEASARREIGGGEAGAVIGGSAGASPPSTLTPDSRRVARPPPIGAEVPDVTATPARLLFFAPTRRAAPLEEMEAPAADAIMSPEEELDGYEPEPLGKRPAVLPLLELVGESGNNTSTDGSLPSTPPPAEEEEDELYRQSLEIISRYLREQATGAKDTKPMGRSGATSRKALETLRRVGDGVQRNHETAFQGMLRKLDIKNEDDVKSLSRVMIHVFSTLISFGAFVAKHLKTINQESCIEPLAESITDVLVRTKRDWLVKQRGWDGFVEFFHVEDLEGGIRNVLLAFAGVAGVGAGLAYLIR

In the case of `CC[C@@]1(O)C(=O)OCc2c1cc1n(c2=O)Cc2cc3ccccc3nc2-1` [CPT, camptothecin], in [1] (CPT 1 μM for 1 hour), the RPA2 foci formation result is recorded as “induced RPA2 foci formation”. Also, the “RPA2 phosphorylation at S4 and S8” value in data set [2] (CPT 1 μM for 1 hour) is on record as “stimulated RPA2 phosphorylation”.
In the case of `NC(=O)NO` [Hu, hydroxyurea], the “percentage of cells in S phase” value is on record as “enhanced” in the data set on H1299 cells [3] (24-hour time point); “did not alter” in the data set with H1299 cells [3] (short time points (2 and 8 hours)). Also, the Mcl-1/Ku interaction result at Mcl-1/Ku complex is “increased at 2, 8, and 24 hours”. In data set [4], the “induction of Rad51 foci” value is “induced Rad51 foci”. Moreover, the RPA2 foci formation entry in data set [1] (Hu 0.2 mM for 24 hours) is reported as “induced RPA2 foci formation”. Further, the “RPA2 phosphorylation at S4 and S8” value in [2] (Hu 0.2 mM for 24 hours) is reported as “stimulated RPA2 phosphorylation”.
What is called Kd is the equilibrium constant for the complex coming apart. Take `CCOC1=CC=CC(=CNn2c(-c3ccccc3Cl)nc3ccccc3c2=O)C1=O` [MI-223, 2-(2-chlorophenyl)-3-(((5-ethoxy-6-oxocyclohexa-2,4-dien-1-ylidene)methyl)amino)quinazolin-4(3H)-one]: the “suppression of lung tumor growth” value in data set [5] (MI-223 40 mg/kg/d in combination with Hu 500 mg/kg) was “significantly greater efficacy than a single agent alone”; in data set [5] (MI-223 40 mg/kg/d in combination with olaparib 40 mg/kg/d, 3 weeks) it was “significantly greater efficacy than a single agent alone”. The “repression of lung cancer in vivo (tumor volume)” value in data set [5] is “potently represses lung cancer in vivo”. The “binding to ΔBH1 Mcl-1 mutant protein” value in data set [6] was “failed to bind”. Moreover, the “Ki-67 in tumor tissues” value in data set [7] (setting [13]) and in [7] (setting [14]) was “significant reduction of Ki-67” in each case. The “γ-H2AX in tumor tissues” value in data set [7] (setting [13]) and in [7] (setting [14]) was “increased levels of γ-H2AX” each time. Moreover, the “synergy in cell killing (colony formation)” value in the data set on H1299 lung cancer cells (MI-223 in combination with Hu) and in the data set on H1299 lung cancer cells (MI-223 in combination with olaparib) was “synergizes” each time. Also, the HR activity entry is “potently inhibited HR activity” in data set [8] and “potently inhibited HR activity” in [11] (H1299 DR-GFP cells, dose-dependent). Besides, the apoptotic cell death entry in the data set with H1299 cells [9] was “did not induce significant apoptotic cell death”. In data set [10] (brain, heart, lung, liver, spleen, kidney, and intestine), the “histopathologic evaluation of normal tissues” value is given as “no evidence of normal tissue toxicity”. Besides, the “increase in alanine transaminase, aspartate transaminase, or blood urea nitrogen” value in data set [10] (setting [15]) is given as “no significant”. Further, the “reduction in wbcs, rbcs, hemoglobin, or platelets” value in data set [10] (setting [15]) is reported as “no significant”. In addition, in data set [10] (setting [15]), the weight loss entry was “no significant weight loss”. The “disruption of Mcl-1/Ku complex” value on Mcl-1/Ku complex (increasing concentrations, 24 hours, co-IP with Mcl-1 antibody) was “disrupted the Mcl-1/Ku complex”. Also, the HR efficacy entry is “dose-dependent reduction of HR efficacy” in data set [11] (H1299 parental cells, 24 hours) and “no significant further effect” in data set [12]. Also, in data set [4] (olaparib- or Hu-induced foci, MI-223 4 μM, 24 hours), the “inhibition of Rad51 foci formation” value was “strongly inhibited Rad51 foci formation”. Besides, the Ki at Mcl-1 worked out at 193 ± 4.3 nM. Besides, the Kd on WT Mcl-1 protein came to 161 ± 7 nM.
On to `O=[N+]([O-])c1ccccc1C=NNC(=S)NN=Cc1ccccc1[N+](=O)[O-]` [MI-361, N′-(2-nitrobenzylidene)-2-(2-nitrobenzylidene)hydrazine-1-carbothiohydrazide], for which the “repression of lung cancer in vivo (tumor volume)” value in data set [5] is reported as “potently represses lung cancer in vivo”.
Still for that read-out and setting: the same measure for `O=C1C=CC=CC1=CNNc1nnc(NNC=C2C=CC=CC2=O)c2ccccc12` [MI-647, 6,6′-((phthalazine-1,4-diylbis(hydrazine-2,1-diyl))bis(methanylylidene))bis(cyclohexa-2,4-dien-1-one)]: “potently represses lung cancer in vivo”.
On the same count and under the same terms, to `Cc1ccc(C)c(NC(=O)C(=O)C(C(=O)c2ccc3ccccc3c2)C2OC(=O)c3ccccc32)c1` (stereo not shown) [MI-985, N-(2,5-dimethylphenyl)-4-(naphthalen-2-yl)-2,4-dioxo-3-(3-oxo-1,3-dihydroisobenzofuran-1-yl)butanamide] belongs “potently represses lung cancer in vivo”.
Regarding `O=C(c1cc(Cc2n[nH]c(=O)c3ccccc23)ccc1F)N1CCN(C(=O)C2CC2)CC1` [olaparib], in the data set on H1299 cells [3] (time points tested), the “percentage of S phase cells” value was “did not significantly affect”. In addition, the Mcl-1/Ku interaction entry on Mcl-1/Ku complex is “increased at 2, 8, and 24 hours”. Besides, in data set [4], the “induction of Rad51 foci” value is reported as “induced Rad51 foci”.
